Article PMC6120238, “Crystal structure of the retroviral protease‐like domain of a protozoal DNA damage‐inducible 1 protein” (FEBS Open Bio, 2018)

Legend:
LmDdi1_1–390 (LmDdi1) [1] = biological target: T1, LmDdi1_1–390 (LmDdi1) (Leishmania major, UniProt I7HUG0); assay: bio-layer interferometry, protein on Ni-NTA sensor, […] Langmuir global fit; type: binding
T1 construct: gene DDI1; full-length residues 1-390 (UBL, RVP and UBA domains), synthetic gene 1170 bp, N-terminal His6 tag (pET-28a, NdeI/HindIII), E. coli BL21; Ni-NTA and gel filtration; immobilised by the tag on Ni-NTA sensor; RVP domain homodimer in crystal; PDB 5YS4 from this construct, 5YQ8 from construct 184-390
T1 sequence (I7HUG0 1-390): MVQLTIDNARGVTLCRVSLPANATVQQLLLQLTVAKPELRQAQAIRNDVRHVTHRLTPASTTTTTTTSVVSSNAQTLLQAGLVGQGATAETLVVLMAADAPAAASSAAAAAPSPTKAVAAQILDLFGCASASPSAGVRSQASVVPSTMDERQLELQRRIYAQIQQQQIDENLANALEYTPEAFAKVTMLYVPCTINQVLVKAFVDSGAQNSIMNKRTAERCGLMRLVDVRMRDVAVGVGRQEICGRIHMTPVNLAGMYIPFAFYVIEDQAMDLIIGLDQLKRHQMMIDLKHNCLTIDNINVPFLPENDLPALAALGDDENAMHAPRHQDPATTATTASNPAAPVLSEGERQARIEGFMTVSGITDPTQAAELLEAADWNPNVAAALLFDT

LmDdi1_1–390 (LmDdi1) [2] = biological target: T1, LmDdi1_1–390 (LmDdi1); assay: as above; type: binding; conditions: 20 mM MES pH 6.0, 200 mM NaCl, 1% DMSO; inhibitor 75-600 μM; weak signal, affinity could not be quantified

Structure (SMILES) | Kd (LmDdi1_1–390 (LmDdi1) [1]) | bio-layer interferometry, protein on Ni-NTA sensor, 1:1 Langmuir global fit (LmDdi1_1–390 (LmDdi1) [2])
CC(C)(C)NC(=O)[C@@H]1C[C@@H]2CCCC[C@@H]2CN1C[C@@H](O)[C@H](Cc1ccccc1)NC(=O)[C@H](CC(N)=O)NC(=O)c1ccc2ccccc2n1 [saquinavir] | 314 ± 12.8 µM | –
Cc1c(O)cccc1C(=O)N[C@@H](CSc1ccccc1)[C@H](O)CN1C[C@H]2CCCC[C@H]2C[C@H]1C(=O)NC(C)(C)C [nelfinavir] | – | Nelfinavir showed much less binding, and the binding affinity could not be quantified
